Measured values as given in US20080045499A1, “Preferential Inhibition of Presenilin-1” (Elan Pharmaceuticals, Inc., priority 2006, published 2008).
Where two headings read alike, the source gives them in different places.

Columns and labels:
[1] = system: 293sw; assay: 293sw IC50 of gamma-secretase inhibitors; type: cell-based
[2] = biological target: T1, Presenilin-1-comprised γ-secretase (Homo sapiens, UniProt P49768); assay: Aβ1-x ELISA in Presenilin-1 transfected PS1/PS2 double knockout mouse fibroblasts; type: cell-based; details: Aβ1-x, Presenilin-1 transfected cells, overnight
T1 construct: expressed in transfected cells; host or cells: mouse fibroblasts derived from PS1/PS2 double knockout cells, pCF vector
Text: (§1) A131-x represents any Aβ peptides longer than Aβ1-23, including Aβ38, Aβ40, and Aβ42, since Aβ1-x is defined operationally by an ELISA assay using proprietary antibody mAb 266 for capture and proprietary antibody mAb 3D6 for detection. The epitope for mAb266 is Aβ16-23, and the epitope for mAb 3D6 is Aβ1-5. […] Aβ40 ELISA employed antibodies mAb 266 as capture and 2G3 (specific for Ab40) as detection, respectively. Furthermore, Aβ42 ELISA employed antibodies mAb 266 as capture and 21F12 as detection, respectively. Hybridomas producing antibodies against Aβ16-23 were generated by standard murine fusion procedures as detailed in Kohler and Milstein (Nature 256:495 1975) and U.S. Pat. No. 4,666,829 which are hereby incorporated by reference in their entireties. See also “Detailed Description” herein. Briefly, two BALB/c mice immunized with Aβ13-28 conjugated to 2C-11 (a T-cell receptor monoclonal antibody) were sacrificed and the spleens removed. Mixed splenocytes were obtained by pressing the spleens through a 30 mesh stainless steel screen. These were fused with P3X63Ag8 murine myeloma cells (aminopterin sensitive) at a fusion ratio of 10:1 in 35% polyethylene-glycol. These cells were plated out in 96 well tissue culture plates in the presence of 2×10^6 thymocytes/ml. Hybridomas were selected for by growing the cells in the presence of aminopterin poisoned Dulbecco's modified Eagle's media augmented with hypoxanthine, thymine and 10% fetal bovine serum. Hybridomas were screened for reactivity against Aβ13-28 and AAP protein via ELISA. Positive clones were sub-cloned twice. Aliquots of the clones were frozen and stored in liquid nitrogen. Supernatants from positive clones were produced in large quantities for further purification of monoclonal antibodies.
(§2) For ELISA assays, each well of 96-well ELISA plates was coated with 100 μl of 10 μg/ml 266 in Well Coating Buffer (pH 8.5) at 4 degrees overnight, and blocked with 0.25% human BSA solution at 25 degrees for 120 minutes. The plate can be used directly without wash, after removing blocking solution.
(§3) ELISA assays were performed at room temperature. Fifty μl of conditioned medium from overnight culture of transfected cells, with or without gamma secretase inhibitors, were added to each well of ELISA plates, and incubated for 1 hour. After washing plates with Tris-buffered saline (TBS) plus 0.05% Tween-20, 50 μl biotinylated 3D6 antibody at 0.5 μg/ml was added to each well and incubate for 45 minutes. […] Next, plates were washed with Tris-buffered saline (TBS) plus 0.05% Tween-20, and 50 μl substrate (1-step slow TMB-Elisa, Pierce, Woburn, Mass., USA, catalogue number: 34024) was added to each well and incubated for 15 min. Finally, substrate reactions were terminate by adding to each well 15 ul 2 NH2SO4, and OD readings were obtained on SpectraMax Plus (Molecular Devices, Sunnyvale, Calif., USA). The Aβ concentration of samples was then obtained by comparing sample OD readings to those of standards.
(§4) EC50 values were derived by curve fitting of Aβ1-x levels, for samples treated with various concentrations of gamma secretase inhibitors, with XLfit software program (IDBS, Alameda, Calif., USA). Differences in EC50 values obtained for Presenilin-1 transfected cells and Presenilin-2 transfected cells exposed to a test compound served as an indicator of differential inhibition.
(§5) Transfected mouse fibroblasts derived from the PS1/PS2 double knockout cells are grown at 37 degree under 10% CO2 in Dulbecco's modified Eagle's medium (DMEM) containing 2-10% fetal bovine serum (FBS) and 100 μg/ml penicillin/streptomycin (Pen/Strp) (Invitrogen Corporation, Carlsbad, Calif., USA).
(§6) Cell culture medium is then removed from the transfected cell lines and analyzed for Aβ1-x levels by ELISA assay, as described in Example 1. ELISA assays are performed using ELISA plates coated with the mAb 266 to capture Aβ peptides and then by detecting Aβ peptides with biotinylated mAb 3D6.

[3] = biological target: T2, Presenilin-2-comprised γ-secretase (Homo sapiens, UniProt P49810); assay: Aβ1-x ELISA in Presenilin-2 transfected PS1/PS2 double knockout mouse fibroblasts; type: cell-based; details: Aβ1-x, Presenilin-2 transfected cells, overnight
T2 construct: expressed in transfected cells; host or cells: mouse fibroblasts derived from PS1/PS2 double knockout cells, pCF vector
Text: as §1, §2, §3, §4, §5, §6

[4] = system: Presenilin-1-comprised γ-secretase relative to Presenilin-2-comprised γ-secretase; assay: PS1/PS2 selectivity: ratio of EC50 in Presenilin-2 and Presenilin-1 transfected cells; type: cell-based, human; details: for PS2/PS1 EC50 ratio: EC50 of Presenilin-2 transfected cells over Presenilin-1 transfected cells
Text: as §4
as §6, with “3D6. EC50 values are derived for all of the test compounds. Differences in EC50 values obtained for Presenilin-1 transfected cells and Presenilin-2 transfected cells exposed to a test compound serve as an indicator of differential inhibition.” for “3D6.”
For example, several tested compounds are sulfonamide compounds, while several are non-sulfonamide compounds. The ratio of the EC50 value obtained for Presenilin-2 transfected cells and Presenilin-1 transfected cells (indicated in the last column of Table I) indicates the degree to which the test compound is capable of preferentially inhibiting Presenilin-1. […] In Table 2, the values shown in columns A, B and C are EC50 values (nM). Where inhibition was very low, EC50 values were not generated by the program; thus EC50 values are not provided. Rather, percent of inhibition was estimated based on the inhibition curve generated by the program. Percentages indicate percentage inhibition at a compound concentration of 10 uM. […]

[5] = system: PS2/1C; assay: Inhibition of chimeric presenilin PS2/1C; type: cell-based, human; details: chimeric PS1/PS2 molecule, FIG. 11
Text: Human PS1, PS2, and APPsw cDNA inserts were subcloned into pCF vector, which was modified with pcDNA3 (Invitrogen, CA, USA) by inserting the adenoviral tripartite leader sequence (Berkner et al, (1987) J. Virol. April; 61(4): 1213-20. Abundant expression of polyomavirus middle T antigen and dihydrofolate reductase in an adenovirus recombinant) 38 bp upstream of the starting ATG codon, between the CMV promoter and the EcoR1 site. Construction of presenilin chimeras was PCR-based. For making chimeras that contain PS1backbone and a PS2 fragment, we first generated a large PCR fragment that contained the entire pCF vector plus all PS1 sequence to be retained, and a small PCR fragment that only contained the PS2 fragment to be used in the final chimera. The two PCR fragments were then ligated in a blunt-end fashion by Rapid DNA ligation kit (Roche, Ind., USA). We used pfu Turbo DNA polymerase kit (Strategene, Calif., USA) for all PCR reactions. To avoid potential mutations introduced by PCR, we first sequenced the entire insert in both strands. […] For making chimeras that contained PS2 backbone and a PS1 fragment, we first generated a large PCR fragment that contained the entire pCF vector plus all PS2 sequence to be retained, and a small PCR fragment that only contained the PS1 fragment to be used in the final chimera. All other cloning procedures were the same as described above. […]

[6] = column A, read-out: PS1 EC50 (nM) A
[7] = column B, read-out: PS1 EC50 (nM) B
[8] = column C, read-out: PS1 EC50 (nM) C
[9] = column A, read-out: PS2 EC50* (nM) A
[10] = column B, read-out: PS2 EC50* (nM) B
[11] = column C, read-out: PS2 EC50* (nM) C

Compound | EC50 [2, 6] [nM] | EC50 [2, 7] [nM] | EC50 [2, 8] [nM] | EC50 [3, 9] [nM] | EC50 [3, 10] [nM] | PS2/PS1 EC50 ratio [4] | EC50 [3, 11] [nM] | IC50 [1] [µM] | inhibitor potencies against PS2/1C compared with PS1 [5] | fold more selective for PS1 ([4]; mean values from 2 independent experiments (FIG. 11)) [fold]
O=C1NCCCC[C@H]1N(Cc1ccc(Br)cc1)S(=O)(=O)c1ccc(Cl)cc1 | 106 | 259 | 159 | 1920 | 3410 | 15 |  | 0.243 |  | 
O=C1NCCCC[C@H]1N(Cc1ccc(Br)cc1)S(=O)(=O)c1ccc(Cl)nc1 | 92 | 189 | 87 | 1570 | 2290 | 31 |  | 0.118 |  | 
Cn1nnc2cc(CN([C@@H]3CCCCNC3=O)S(=O)(=O)c3ccc(Cl)nc3)ccc21 | 84 | 53 | 114 | 1980 | 1840 | 23 |  | 0.238 |  | 
CCS(=O)(=O)CC[C@@H](C)N(c1cc(Cl)ccc1Cl)S(=O)(=O)c1ccc(Cl)cc1 | 153 | 868 | 598 | 5000 | 5700 | 10 |  | 0.182 |  | 
O=C1NCCCC[C@H]1N(Cc1ccc(-c2ncon2)cc1)S(=O)(=O)c1ccc(Cl)cc1 | 20 | 5.9 | 26 | 175 | 156 | 12 | 263 | 0.016 |  | 
BMS299897 [reference compound] |  |  |  |  |  |  |  |  | behaved just like PS1 | ~35

Further lines, with some results ahead:

EC50 [2, 6] [nM] | EC50 [2, 7] [nM] | EC50 [2, 8] [nM] | EC50 [3, 9] [nM] | EC50 [3, 10] [nM] | PS2/PS1 EC50 ratio [4] | EC50 [3, 11] [nM] | Compound | IC50 [1] [µM] | inhibitor potencies against PS2/1C compared with PS1 [5] | fold more selective for PS1 ([4]; mean values from 2 independent experiments (FIG. 11)) [fold]
40 | 75 | 42 | 589 | 924 | 15 |  | Cn1nnc2cc(CN([C@@H]3CCCCNC3=O)S(=O)(=O)c3ccc(Cl)cc3)ccc21 | 0.051 |  | 
8.2 | 8.3 | 19 | 26 | 23 | 2 |  | C[C@H](NC(=O)[C@@H](O)c1cc(F)cc(F)c1)C(=O)Nc1cc(C(C)(C)c2ccccc2)n[nH]1 | 0.001 |  | 
10 | 37 | 17.5 | 45 | 44 | 2 |  | C[C@H](NC(=O)[C@@H](O)c1cc(F)cc(F)c1)C(=O)N[C@H](C(=O)NCC1CN(c2ccccc2)CCO1)c1ccccc1 (some centres unmarked) | 0.041 |  | 
91 | 89 | 109 | 1290 | 1980 | 27 | 4540 | COc1ccc(CN([C@@H]2CCCCNC2=O)S(=O)(=O)c2ccc(Cl)cc2)cc1OC | 0.126 |  | 
122 | 87 | 102 | 6410 | 5310 | 47 | 3000 | Cn1nnc2cc(CN([C@@H]3CCCCNC3=O)S(=O)(=O)c3ccc(Cl)s3)ccc21 | 0.775 |  | 
30 | 50 | 74 | 585 | 412 | 10 | 553 | O=C1NCCCC[C@H]1N(Cc1ccc(-c2nccs2)cc1)S(=O)(=O)c1ccc(Cl)cc1 | 0.077 |  | 
